Reference: patent publication US6310091A, “Fungicidal saponin, CAY-1, and isolation thereof from Capsium species fruit” (The United States of America as represented by the …, priority 2000, dated 2001)
Values joined by “and” are separate entries in the source; they are usually repeats but may differ in a detail not shown here. Identical values can stand only once. Like-named read-outs stand apart in the source and are kept apart here.

Key:
Aspergillus niger = experiment: Fungicidal bioassay on nongerminated and germinating conidia of A. niger; type: cell-based; conditions: for activity at 5 µM / activity at 10 µM / activity at 15 µM / activity at 20 µM / activity at 1 µM / activity at 2.5 µM: read-out: Percent of Mean Control
Method: 1. Filamentous fungi. Filamentous fungi used in bioassays included Aspergillus flavus, A. fumigatus, A. niger, A. parasiticus and Fusarium oxysporum. The fungicidal properties of CAY-1 for the nongerminated and germinating conidia of these fungi were determined separately as described by De Lucca et al. [Med. Mycol., 36:291-298 (1998)] and De Lucca et al. [Antimicrob. Agents Chemother. 43:371-373 (1999)]. […] Two separate experiments were conducted in each medium (n=8 per medium).
A suspension of the aforementioned fungi were prepared separately in the appropriate medium. Conidia (10^4 conidia/ml) were used immediately for the nongerminated conidial assays while conidia (10^5 conidia/ml) were incubated for 7.5 hours at 30° C. to obtain germinating conidia. Serial dilutions of CAY-1 were prepared in the appropriate medium (totaling 225 μl) to which was added 25 μl of the conidial suspensions. The control consisted of 225 μl of medium and 25 μl of the conidial suspension. After mixing, the samples were incubated for 30 min (30° C.). Samples were then spread on potato dextrose agar plates which were incubated at 30° C. for 24 hours. Colonies were then enumerated.
Statistical analyses. ANOVA analyses on ranks for nonparametric data were performed for the bioassays described in this example.

Pneumocystis carinii = experiment: Effect on Pneumocystis carinii viability (ATP-driven bioluminescent assay); type: cell-based; conditions: for activity at 10 µM / activity at 2.5 µM / activity at 5 µM / activity at 20 µM / activity at 40 µM / activity at 80 µM: read-out: Percent of Control Mean; for activity at 2.5 µM: 3.2 μg/ml; for activity at 5 µM: 6.3 μg/ml; for activity at 20 µM: 25 μg/ml; for activity at 40 µM: 50 μg/ml; for activity at 80 µM: 100 μg/ml
Method: 3. Pneumocystis carinii. The effect of CAY-1 on Pneumocystis carinii was determined as described previously [Cushion et al., Antimicrob. Agents Chemother., 1997, 41:379-384, herein incorporated by reference]. This assay is based on an ATP-driven bioluminescent reaction and was used to determine the concentration of CAY-1 which decreased the P. carinii ATP pools.

[1] = Mammalian cytotoxicity, HeLa cells (neutral red); type: cell-based, Human; conditions: human, hela cells
Method: (§1) 1. HeLa cells. Human epitheloid cervical carcinoma cells (ATCC2.2CCL) were grown in MEM media (Mediatech), supplemented with fetal bovine sera and penicillin (De Lucca et al., Antimicrob. Agents Chemother., 1999, 43:371-373). The cells were rinsed with PBS and harvested using trypsin. Cell count was determined manually using trypan blue and cells were diluted to a final concentration of 2.5×10^5 […]. Aliquots of 100 μl were dispensed per well into a 96-well plate. Cells were incubated overnight (18-24 hours) at 37° C. in a humidified 5% (v/v) CO2 environment. Neutral red dye solution was then added to each well culture and re-incubated for 3 hours. Two-fold serial dilutions of CAY-1 were prepared and aliquoted to final concentrations of 5, 10, 20, 30, and 60 μM (6, 12, 25, 37 and 74 μg/ml, respectively). Negative controls without CAY-1 were included. Cells were exposed to the saponin for 1 hour. Supernatants from each well were transferred into another 96-well plate. The remaining cells were lysed using a 2% Triton solution. Glacial acetic acid was then added to supernatants and lysates, and absorbance was read at A540.

HeLa cells = experiment: Mammalian cytotoxicity, HeLa cells (neutral red); type: cell-based, Human; conditions: at concentrations effective against the fungi and yeast
Method: as §1

[2] = system: A549 lung carcinoma cells; experiment: Mammalian cytotoxicity, A549 lung carcinoma cells (ATP content); type: cell-based; conditions: at concentrations effective against the fungi and yeast
Method: 2. A549 lung carcinoma cells. Toxicity of CAY-1 was tested by exposing the cells to CAY-1 for 24, 48, and 72 hrs. Antimycin A was used as a positive control. Viability was assessed by measurement of the ATP content in duplicate wells with luciferin-luciferase monitoring reagent [Cushion et al., Antimicrob. Agents Chemother., 1997, 41:379-384].

[3] = Pneumocystis carinii, 24 h, Day 1
[4] = Pneumocystis carinii, 48 h, Day 2
[5] = Pneumocystis carinii, 72 h, Day 3

SMILES: CC1CCC2(OC1)OC1CC3C4CCC5CC(OC6OC(CO)C(OC7OC(CO)C(O)C(OC8OC(CO)C(O)C(OC9OC(CO)C(O)C(O)C9O)C8O)C7OC7OC(CO)C(O)C(O)C7O)C(O)C6O)C(O)CC5(C)C4CCC3(C)C1C2C (stereo not shown) [CAY-1]
- activity at 5 µM (Aspergillus niger; Aspergillus niger, 0.5 h, germinated, RPMI-1640, 5.0 μM): 94.9%
- activity at 10 µM (Aspergillus niger; Aspergillus niger, 0.5 h, germinated, RPMI-1640, 10.0 μM): 86.2%
- activity at 15 µM (Aspergillus niger; Aspergillus niger, 0.5 h, germinated, RPMI-1640, 15.0 μM): 93.9%
- activity at 20 µM (Aspergillus niger; Aspergillus niger, 0.5 h, germinated, RPMI-1640, 20.0 μM): 85.4%
- activity at 1 µM (Aspergillus niger; Aspergillus niger, 0.5 h, germinating, 1% PDB, 1.0 μM): 118%
- activity at 2.5 µM (Aspergillus niger; Aspergillus niger, 0.5 h, germinating, 1% PDB, 2.5 μM): 89.8%
- activity at 5 µM (Aspergillus niger; Aspergillus niger, 0.5 h, germinating, 1% PDB, 5.0 μM): 18.2%
- activity at 10 µM (Aspergillus niger; Aspergillus niger, 0.5 h, germinating, 1% PDB, 10.0 μM): 12%
- activity at 15 µM (Aspergillus niger; Aspergillus niger, 0.5 h, germinating, 1% PDB, 15.0 μM): 5.7%
- activity at 20 µM (Aspergillus niger; Aspergillus niger, 0.5 h, germinating, 1% PDB, 20.0 μM): 3.9%
- activity at 1 µM (Aspergillus niger; Aspergillus niger, 0.5 h, nongerminated, 1% PDB, 1.0 μM): 102%
- activity at 2.5 µM (Aspergillus niger; Aspergillus niger, 0.5 h, nongerminated, 1% PDB, 2.5 μM): 96.6%
- activity at 5 µM (Aspergillus niger; Aspergillus niger, 0.5 h, nongerminated, 1% PDB, 5.0 μM): 118%
- activity at 10 µM (Aspergillus niger; Aspergillus niger, 0.5 h, nongerminated, 1% PDB, 10.0 μM): 92.7%
- activity at 15 µM (Aspergillus niger; Aspergillus niger, 0.5 h, nongerminated, 1% PDB, 15.0 μM): 116%
- activity at 20 µM (Aspergillus niger; Aspergillus niger, 0.5 h, nongerminated, 1% PDB, 20.0 μM): 64.4%
- activity at 5 µM (Aspergillus niger; Aspergillus niger, 0.5 h, nongerminated, RPMI-1640, 5.0 μM): 76.8%
- activity at 10 µM (Aspergillus niger; Aspergillus niger, 0.5 h, nongerminated, RPMI-1640, 10.0 μM): 87.7%
- activity at 15 µM (Aspergillus niger; Aspergillus niger, 0.5 h, nongerminated, RPMI-1640, 15.0 μM): 83.8%
- activity at 20 µM (Aspergillus niger; Aspergillus niger, 0.5 h, nongerminated, RPMI-1640, 20.0 μM): 104%
- IC95 (Aspergillus niger; Aspergillus niger, 0.5 h, read-out: LD95): 15 µM and 18.6 µg/mL
- minimal effective concentration (Aspergillus niger; Aspergillus niger, 0.5 h, read-out: concentration achieving significant lethality): 5 µM and 6.2 µg/mL
- Mean No. of Colonies (Aspergillus niger; germinated, RPMI-1640, 5.0 μM): 50.1
- Mean No. of Colonies (Aspergillus niger; germinated, RPMI-1640, 10.0 μM): 45.5
- Mean No. of Colonies (Aspergillus niger; germinated, RPMI-1640, 15.0 μM): 49.6
- Mean No. of Colonies (Aspergillus niger; germinated, RPMI-1640, 20.0 μM): 45.1
- lethality to germinating conidia (Aspergillus niger; germinating conidia, RPMI-1640): no effect was observed
- Mean No. of Colonies (Aspergillus niger; germinating, 1% PDB, 1.0 μM): 60.4
- Mean No. of Colonies (Aspergillus niger; germinating, 1% PDB, 2.5 μM): 45.8
- Mean No. of Colonies (Aspergillus niger; germinating, 1% PDB, 5.0 μM): 9.3
- Mean No. of Colonies (Aspergillus niger; germinating, 1% PDB, 10.0 μM): 6.1
- Mean No. of Colonies (Aspergillus niger; germinating, 1% PDB, 15.0 μM): 2.9
- Mean No. of Colonies (Aspergillus niger; germinating, 1% PDB, 20.0 μM): 2.0
- viability of nongerminated conidia (Aspergillus niger; nongerminated conidia, either test medium): not affected
- Mean No. of Colonies (Aspergillus niger; nongerminated, 1% PDB, 1.0 μM): 36.5
- Mean No. of Colonies (Aspergillus niger; nongerminated, 1% PDB, 2.5 μM): 34.5
- Mean No. of Colonies (Aspergillus niger; nongerminated, 1% PDB, 5.0 μM): 42.3
- Mean No. of Colonies (Aspergillus niger; nongerminated, 1% PDB, 10.0 μM): 33.1
- Mean No. of Colonies (Aspergillus niger; nongerminated, 1% PDB, 15.0 μM): 41.5
- Mean No. of Colonies (Aspergillus niger; nongerminated, 1% PDB, 20.0 μM): 23.0
- Mean No. of Colonies (Aspergillus niger; nongerminated, RPMI-1640, 5.0 μM): 37.5
- Mean No. of Colonies (Aspergillus niger; nongerminated, RPMI-1640, 10.0 μM): 42.8
- Mean No. of Colonies (Aspergillus niger; nongerminated, RPMI-1640, 15.0 μM): 40.9
- Mean No. of Colonies (Aspergillus niger; nongerminated, RPMI-1640, 20.0 μM): 51.0
- effectiveness compared with pentamidine (Pneumocystis carinii; 25 and 50 μg/ml (20.2 and 40.3 μM) vs pentamidine 10 μg/ml, 29 μM): as, or more effective, than pentamidine
- IC50 (Pneumocystis carinii; Pneumocystis carinii): 11.8 µg/mL and 9.5 µM
- activity at 10 µM (Pneumocystis carinii; Pneumocystis carinii, 24 h): 43.1%
- activity at 2.5 µM (Pneumocystis carinii; [3]): 94.7%
- activity at 5 µM (Pneumocystis carinii; [3]): 70.1%
- activity at 20 µM (Pneumocystis carinii; [3]): 18%
- activity at 40 µM (Pneumocystis carinii; [3]): 10%
- activity at 80 µM (Pneumocystis carinii; [3]): 3.1%
- killing at 10 µM (Pneumocystis carinii; Pneumocystis carinii, 48 h, read-out: P. carinii killed): ≥ 34.6%
- activity at 10 µM (Pneumocystis carinii; Pneumocystis carinii, 48 h): 11.8%
- activity at 2.5 µM (Pneumocystis carinii; [4]): 98.2%
- activity at 5 µM (Pneumocystis carinii; [4]): 56.9%
- activity at 20 µM (Pneumocystis carinii; [4]): 5.5%
- activity at 40 µM (Pneumocystis carinii; [4]): 2.2%
- activity at 80 µM (Pneumocystis carinii; [4]): 0.9%
- killing at 40.3 µM (Pneumocystis carinii; Pneumocystis carinii, 72 h, read-out: P. carinii cells killed): 93%
- activity at 10 µM (Pneumocystis carinii; Pneumocystis carinii, 72 h): 12.1%
- activity at 2.5 µM (Pneumocystis carinii; [5]): 99.8%
- activity at 5 µM (Pneumocystis carinii; [5]): 46.6%
- activity at 20 µM (Pneumocystis carinii; [5]): 3.3%
- activity at 40 µM (Pneumocystis carinii; [5]): 1%
- activity at 80 µM (Pneumocystis carinii; [5]): 0.3%
- minimal effective concentration (Pneumocystis carinii; Pneumocystis carinii, read-out: concentration at which lethality begins): 5 µM
- minimal effective concentration (Pneumocystis carinii; Pneumocystis carinii, read-out: lowest effective level in vitro): ~5 µM
- MCC at 1 h [1]: 30 µM and 37 µg/mL
- cytotoxicity at 1 h, 30 µM [1]: ~13%
- cytotoxicity at 1 h, 60 µM [1]: ~32%
- lethality to mammalian cells (HeLa cells): not lethal
- lethality to mammalian cells [2]: not lethal
